In ChEMBL document CHEMBL1126211, “Arylamides of hydroxylated isoquinolines as protein-tyrosine kinase inhibitors” (Bioorg Med Chem Lett, 1992):

How the values were obtained:
[1] = target: Epidermal growth factor receptor (Homo sapiens, UniProt P00533); experiment: Inhibition of epidermal growth factor receptor (EGFR)
[2] = target: Tyrosine-protein kinase Lck (Homo sapiens, UniProt P06239); experiment: Inhibition of p56 lck tyrosine kinase
Chain of Tyrosine-protein kinase Lck (P06239 whole entry): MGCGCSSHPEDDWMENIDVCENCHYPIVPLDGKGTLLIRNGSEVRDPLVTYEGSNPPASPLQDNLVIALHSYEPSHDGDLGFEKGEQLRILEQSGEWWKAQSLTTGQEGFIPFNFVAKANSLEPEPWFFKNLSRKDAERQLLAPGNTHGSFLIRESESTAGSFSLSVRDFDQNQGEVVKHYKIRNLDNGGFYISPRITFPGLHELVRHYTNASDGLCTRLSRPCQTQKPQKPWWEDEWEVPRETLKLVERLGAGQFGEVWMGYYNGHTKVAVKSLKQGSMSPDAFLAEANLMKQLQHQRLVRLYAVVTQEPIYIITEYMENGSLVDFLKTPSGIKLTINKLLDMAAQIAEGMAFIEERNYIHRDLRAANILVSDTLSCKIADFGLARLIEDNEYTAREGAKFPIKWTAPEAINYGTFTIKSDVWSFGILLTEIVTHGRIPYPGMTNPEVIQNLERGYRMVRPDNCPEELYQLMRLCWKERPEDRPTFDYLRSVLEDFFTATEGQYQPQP

Chain of Epidermal growth factor receptor (P00533 whole entry): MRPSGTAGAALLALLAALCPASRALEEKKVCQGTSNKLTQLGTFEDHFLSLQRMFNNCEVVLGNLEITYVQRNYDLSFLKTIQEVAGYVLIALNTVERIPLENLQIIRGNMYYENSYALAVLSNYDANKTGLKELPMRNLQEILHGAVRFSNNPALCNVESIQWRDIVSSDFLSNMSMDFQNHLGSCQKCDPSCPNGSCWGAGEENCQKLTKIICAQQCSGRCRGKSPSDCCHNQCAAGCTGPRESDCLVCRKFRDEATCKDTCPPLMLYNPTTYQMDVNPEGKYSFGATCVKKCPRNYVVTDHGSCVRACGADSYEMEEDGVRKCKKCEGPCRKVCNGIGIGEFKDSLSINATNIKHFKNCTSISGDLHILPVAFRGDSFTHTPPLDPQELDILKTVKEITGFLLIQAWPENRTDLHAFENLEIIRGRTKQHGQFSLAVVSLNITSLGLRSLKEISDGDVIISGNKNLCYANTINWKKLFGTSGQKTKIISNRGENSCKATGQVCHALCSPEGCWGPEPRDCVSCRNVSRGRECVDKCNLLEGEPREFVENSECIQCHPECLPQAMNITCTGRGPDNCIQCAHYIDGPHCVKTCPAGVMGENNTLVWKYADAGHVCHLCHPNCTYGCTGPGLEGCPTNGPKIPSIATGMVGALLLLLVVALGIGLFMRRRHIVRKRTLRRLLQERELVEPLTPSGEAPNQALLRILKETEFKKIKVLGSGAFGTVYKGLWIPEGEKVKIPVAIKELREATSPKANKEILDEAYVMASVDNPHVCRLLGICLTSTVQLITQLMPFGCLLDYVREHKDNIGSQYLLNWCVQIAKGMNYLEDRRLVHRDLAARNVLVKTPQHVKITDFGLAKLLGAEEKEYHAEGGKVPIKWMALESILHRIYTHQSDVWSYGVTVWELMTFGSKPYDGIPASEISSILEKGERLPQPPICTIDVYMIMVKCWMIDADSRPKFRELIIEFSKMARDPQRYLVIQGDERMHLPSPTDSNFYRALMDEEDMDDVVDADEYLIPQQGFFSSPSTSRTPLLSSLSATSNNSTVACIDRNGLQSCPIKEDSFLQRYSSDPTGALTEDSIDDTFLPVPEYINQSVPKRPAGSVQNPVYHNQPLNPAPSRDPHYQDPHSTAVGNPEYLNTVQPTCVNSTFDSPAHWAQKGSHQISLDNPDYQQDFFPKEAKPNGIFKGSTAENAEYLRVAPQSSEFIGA

Row | Compound | IC50 [1] | IC50 [2]
1 | O=C(Nc1ccccc1)c1cc2cc(O)c(O)cc2cn1 | 5.6 µM | 600 µM
2 | O=C(NCc1ccccc1)c1cc2cc(O)c(O)cc2cn1 | 3.1 µM | > 1000 µM
3 | N#C/C(=C\c1ccc(O)c(O)c1)C(N)=O | 20 µM | –

Further lines, results first:

Row | IC50 [1] | IC50 [2] | Compound
4 | > 100 µM | 0.5 µM | NC(=O)c1cc2ccc(O)c(O)c2cn1
5 | 7.7 µM | 1 µM | O=C(Nc1ccccc1)c1cc2ccc(O)c(O)c2cn1
6 | 1.4 µM | 40 µM | O=C(NCCc1ccccc1)c1cc2ccc(O)c(O)c2cn1
7 | > 100 µM | 1900 µM | NC(=O)c1cc2cc(O)c(O)cc2cn1
8 | 1.4 µM | 1 µM | O=C(NCc1ccccc1)c1cc2ccc(O)c(O)c2cn1
